We go through 2 compounds from patent US5438052A, “Cephalosporin derivatives” (Hoffmann-La Roche Inc., priority 1991, dated 1995).

Usually MIC stands for the lowest concentration that inhibits growth of the organism. In general, ED50 refers to the midpoint of the dose-response relation.

The subject of one experiment is P. aeruginosa MK1184. Nature of the experiment: Minimum inhibitory concentration in vitro, agar dilution method. It is filed as cell-based. The following applies: Pseudomonas aeruginosa, MK1184. The source says:
(§1) 1. Minimum Inhibitory Concentration in vitro
(§2) The activities ascertained, minimum inhibitory concentration (MIC) in μg/ml, are compiled in Table 1 hereinafter: […]
(In general: In agar dilution the substance is mixed into plates at graded concentrations.)

The subject of the next experiment is C. freundii 902. Described as above. The experiment is classed as cell-based. The following applies: Citrobacter freundii, 902.
Excerpt: as §1, §2

The subject of the next experiment is P. vulgaris 1028. The description is as above. The experiment is classed as cell-based. The conditions noted are these: Proteus vulgaris, 1028.
Excerpt: as §1, §2

The next experiment deals with P. aeruginosa 799/61. Described as above. The conditions noted are these: Pseudomonas aeruginosa, 799/61. It is filed as cell-based.
Excerpt: as §1, §2

The next experiment has as its system S. marcescens 69438. Described as above. The experiment is classed as cell-based. The following applies: Serratia marcescens, 69438.
Excerpt: as §1, §2

In a further experiment the test system is S. pyogenes 15. Described as above. It is filed as cell-based. The following applies: Streptococcus pyogenes, 15.
Excerpt: as §1, §2

The test system of another experiment is K. oxytoca 1082. Described as above. It is filed as cell-based. The conditions noted are these: Klebsiella oxytoca, 1082.
Excerpt: as §1, §2

For experiment [1], the system named is E. coli 25922. Described as above. The following applies: Escherichia coli, 25922. The experiment is classed as cell-based.
Excerpt: as §1, §2

The test system of a further experiment is P. mirabilis 2117. The description is as above. The experiment is classed as cell-based. The following applies: Proteus mirabilis, 2117.
Excerpt: as §1, §2

For a further experiment, the system named is E. cloacae P99. The experiment is described as above. The experiment is classed as cell-based. The conditions noted are these: Enterobacter cloacae.
Excerpt: as §1, §2

A further experiment has as its system P. aeruginosa BA. Described as above. The experiment is classed as cell-based. The conditions noted are these: Pseudomonas aeruginosa.
Excerpt: as §1, §2

In the next experiment the test system is P. aeruginosa 799/WT. Described as above. The experiment is classed as cell-based. The following applies: Pseudomonas aeruginosa, 799/WT.
Excerpt: as §1, §2

The next experiment has as its system E. cloacae 908SSi. Described as above. The following applies: Enterobacter cloacae, 908SSI. It is filed as cell-based.
Excerpt: as §1, §2

The subject of another experiment is S. aureus 6538. Described as above. The experiment is classed as cell-based. The conditions noted are these: Staphylococcus aureus, 6538.
Excerpt: as §1, §2

In a further experiment the test system is P. aeruginosa 27853. The experiment is described as above. It is filed as cell-based. The conditions noted are these: Pseudomonas aeruginosa, 27853.
Excerpt: as §1, §2

The test system of another experiment is E. cloacae 908R. The experiment is described as above. It is filed as cell-based. The following applies: Enterobacter cloacae, 908R.
Excerpt: as §1, §2

A further experiment relates to K. pneumoniae 418. The description is as above. The conditions noted are these: Klebsiella pneumoniae, 418. The experiment is classed as cell-based.
Excerpt: as §1, §2

The test system of experiment [2] is E. coli 25922. As to the kind of experiment: Experimental systemic septicaemia in the mouse. The conditions noted are these: Escherichia coli, 25922, sc, 96 h. The experiment is classed as in vivo. The method in brief: (§3)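 ED50 in mg/kg s.c. is the Probit-derived dose protecting half the mice, judged on survival 4 days after i.p. challenge (about 5-100× 48 h LD50) in 16-20 g albino mice, 5 per group. Dosing was s.c. in 2% Tween 80 at 1 and 3 h, plus 5 h for P. aeruginosa.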

In experiment [3] the test system is Pseudomonas aeruginosa BA. Nature of the experiment: Experimental systemic septicaemia in the mouse. The experiment is classed as in vivo. The conditions noted are these: sc, 96 h. In outline: as §3
In another experiment the test system is S. aureus Schoch. As to the kind of experiment: Experimental systemic septicaemia in the mouse. The following applies: Staphylococcus aureus, sc, 96 h. The experiment is classed as in vivo. The method in brief:
as §3

Another experiment concerns S. pneumoniae BA. Nature of the experiment: Minimum inhibitory concentration in vitro, agar dilution method. The experiment is classed as cell-based. The conditions noted are these: Streptococcus pneumoniae.
Excerpt: as §1, §2

In the case of `Cc1cc(SCC2=C(C(=O)[O-])N3C(=O)[C@@H](NC(=O)/C(=N\OCc4ccc(O)c(O)c4)c4csc(N)n4)[C@H]3SC2)n2nc(COC(=O)c3ccc(O)c(O)c3)nc2n1.[Na+]` [Example 8, (6R,7R)-7-[(Z)-2-(2-amino-4-thiazolyl)-2-[[(3,4-dihydroxybenzyl)oxy]imino]acetamido]-3-[[[2-[[(3,4-dihydroxybenzoyl)oxy]methyl]-5-methyl-s-triazolo[1,5-a]pyrimidin-7-yl]thio]methyl]-8-oxo-5-thia-1-azabicyclo[4.2.0]oct-2-ene-2-carboxylic acid sodium salt (1:1)], the minimum inhibitory concentration (MIC) against P. aeruginosa MK1184 was under 0.1 µg/mL; in the experiment on C. freundii 902 it was under 0.1 µg/mL; against P. vulgaris 1028, under 0.1 µg/mL; against P. aeruginosa 799/61, under 0.1 µg/mL; against S. marcescens 69438, 0.12 µg/mL; against S. pyogenes 15, 1 µg/mL. Further, the MIC against K. oxytoca 1082 is under 0.1 µg/mL; in the experiment on E. coli 25922 [1] it was under 0.1 µg/mL; in the experiment on P. mirabilis 2117, under 0.1 µg/mL; against E. cloacae P99, 8 µg/mL; in the experiment on P. aeruginosa BA it was under 0.1 µg/mL; in the experiment on P. aeruginosa 799/WT it was under 0.1 µg/mL. Further, the MIC against E. cloacae 908SSi was 2 µg/mL; in the experiment on S. aureus 6538, 4 µg/mL; with P. aeruginosa 27853, 0.12 µg/mL; in the experiment with E. cloacae 908R, 0.25 µg/mL; in the experiment on K. pneumoniae 418 it was under 0.1 µg/mL. Moreover, the 50% effective dose (ED50) with E. coli 25922 [2] is under 0.1 mg/kg; in experiment [3], 0.45 mg/kg; in the experiment with S. aureus Schoch, 2 mg/kg.
As for `Cc1cc(SCC2=C(C(=O)[O-])N3C(=O)[C@@H](NC(=O)/C(=N\OC(C)(C)C(=O)NNC(=O)c4ccc(O)c(O)c4)c4csc(N)n4)[C@H]3SC2)n2nc(CNS(=O)(=O)c3ccc(O)c(O)c3)nc2n1.[Na+]` [Example 42, (6R,7R)-7-[(Z)-2-(2-amino-4-thiazolyl)-2-[[1-[3-(3,4-dihydroxybenzoyl)carbazoyl]-1-methylethoxy]imino]acetamido]-3-[[[2-[(3,4-dihydroxybenzenesulphonamido)methyl]-5-methyl-s-triazolo[1,5-a]pyrimidin-7-yl]thio]methyl]-8-oxo-5-thia-1-azabicyclo[4.2.0]oct-2-ene-2-carboxylic acid sodium salt (1:1)], the minimal inhibitory concentration (MIC) was under 0.1 µg/mL against P. aeruginosa MK1184; under 0.1 µg/mL in the experiment on C. freundii 902; 0.25 µg/mL with P. vulgaris 1028; under 0.1 µg/mL with P. aeruginosa 799/61; 0.12 µg/mL against S. marcescens 69438; 8 µg/mL against S. pyogenes 15. In addition, the minimal inhibitory concentration (MIC) was under 0.1 µg/mL in the experiment with K. oxytoca 1082; under 0.1 µg/mL against E. coli 25922 [1]; 0.12 µg/mL against P. mirabilis 2117; under 0.1 µg/mL in the experiment on P. aeruginosa BA; under 0.1 µg/mL with P. aeruginosa 799/WT; 4 µg/mL in the experiment on E. cloacae 908SSi. For the same compound, the MIC was 32 µg/mL against S. aureus 6538; 0.25 µg/mL against P. aeruginosa 27853; 0.5 µg/mL in the experiment with E. cloacae 908R; under 0.1 µg/mL in the experiment on K. pneumoniae 418; 4 µg/mL in the experiment on S. pneumoniae BA. Besides, the 50% effective dose (ED50) in the experiment on E. coli 25922 [2] is 0.005 mg/kg; in experiment [3] it was 0.017 mg/kg; in the experiment on S. aureus Schoch it was 10 mg/kg.
